Data as given in BigSolDB 2.1.

c1ccc2cc3ccccc3cc2c1
Details | solubility (mole fraction)
in DMAc, 293.15 K | 0.0083
in DMAc, 298.85 K | 0.0113
in DMAc, 303.85 K | 0.0142
in DMAc, 308.75 K | 0.0159
in DMAc, 313.95 K | 0.0185
in DMAc, 319.75 K | 0.0215
in DMAc, 324.25 K | 0.025
in DMAc, 328.05 K | 0.0269
in DMAc, 332.2 K | 0.0301
in DMAc, 333.15 K | 0.029
in DMAc, 339.35 K | 0.0338
in DMAc, 344.95 K | 0.0393
in DMAc, 348.45 K | 0.0432
in DMAc, 350.3 K | 0.0502
in DMAc, 354.55 K | 0.0485
in DMAc, 359.25 K | 0.0564
in DMF, 293.35 K | 0.0042
in DMF, 298.45 K | 0.0054
in DMF, 303 K | 0.0057
in DMF, 303.15 K | 0.0068
in DMF, 308 K | 0.0072
in DMF, 308.45 K | 0.0086
in DMF, 312.8 K | 0.0101
in DMF, 313.21 K | 0.0114
in DMF, 313.65 K | 0.0104
in DMF, 317.4 K | 0.011
in DMF, 318.15 K | 0.0127
in DMF, 318.85 K | 0.0131
in DMF, 322.8 K | 0.0139
in DMF, 323.25 K | 0.015
in DMF, 326.28 K | 0.0166
in DMF, 329.15 K | 0.018
in DMF, 333.15 K | 0.0191
in DMF, 334.55 K | 0.0211
in DMF, 334.9 K | 0.0221
in DMF, 339.75 K | 0.0252
in DMF, 345.05 K | 0.0292
in DMF, 348.29 K | 0.032
in DMF, 349.85 K | 0.0336
in DMF, 353.55 K | 0.0384
in DMF, 358.85 K | 0.0448
in DMF, 359.48 K | 0.0452
in NMP, 293.45 K | 0.0152
in NMP, 299.15 K | 0.0186
in NMP, 303.45 K | 0.0217
in NMP, 308.55 K | 0.0255
in NMP, 314.05 K | 0.0325
in NMP, 317.84 K | 0.043
in NMP, 318.15 K | 0.0409
in NMP, 324.75 K | 0.0455
in NMP, 331.21 K | 0.0546
in NMP, 331.25 K | 0.0539
in NMP, 335.25 K | 0.0591
in NMP, 339.75 K | 0.0653
in NMP, 344.55 K | 0.0738
in NMP, 349.85 K | 0.0804
in NMP, 350.45 K | 0.0825
in NMP, 353.55 K | 0.0884
